Among the data in ChEMBL document CHEMBL1134914, “Acyl dipeptides as reversible caspase inhibitors. Part 1: initial lead optimization” (Bioorg Med Chem Lett, 2002) are IC50 values, retold here.

In assay [1] the target is T1, Caspase-6 (Homo sapiens, UniProt P55212).
T1 sequence (P55212 whole entry): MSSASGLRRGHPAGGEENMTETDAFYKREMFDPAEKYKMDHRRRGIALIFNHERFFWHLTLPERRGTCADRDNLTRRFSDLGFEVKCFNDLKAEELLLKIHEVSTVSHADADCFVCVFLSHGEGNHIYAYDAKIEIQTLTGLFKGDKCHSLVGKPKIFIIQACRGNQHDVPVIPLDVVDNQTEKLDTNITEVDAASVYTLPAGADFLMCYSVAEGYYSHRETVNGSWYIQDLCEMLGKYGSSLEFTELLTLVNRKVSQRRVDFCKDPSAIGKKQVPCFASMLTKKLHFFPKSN
Nature of the assay: Inhibitory concentration required against caspase-6.

In assay [2] the target is T2, Caspase-3 (Homo sapiens, UniProt P42574).
T2 sequence (P42574 whole entry): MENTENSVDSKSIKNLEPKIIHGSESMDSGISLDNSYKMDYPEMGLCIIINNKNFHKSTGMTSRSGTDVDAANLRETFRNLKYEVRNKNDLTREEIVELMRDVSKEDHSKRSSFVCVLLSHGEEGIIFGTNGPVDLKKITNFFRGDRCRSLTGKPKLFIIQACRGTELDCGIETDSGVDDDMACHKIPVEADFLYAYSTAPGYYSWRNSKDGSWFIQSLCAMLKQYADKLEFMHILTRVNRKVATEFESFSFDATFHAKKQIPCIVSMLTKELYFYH
Briefly: Inhibitory concentration against caspase-3.

In assay [3] the target is T3, Caspase-7 (Homo sapiens, UniProt P55210).
T3 sequence (P55210 whole entry): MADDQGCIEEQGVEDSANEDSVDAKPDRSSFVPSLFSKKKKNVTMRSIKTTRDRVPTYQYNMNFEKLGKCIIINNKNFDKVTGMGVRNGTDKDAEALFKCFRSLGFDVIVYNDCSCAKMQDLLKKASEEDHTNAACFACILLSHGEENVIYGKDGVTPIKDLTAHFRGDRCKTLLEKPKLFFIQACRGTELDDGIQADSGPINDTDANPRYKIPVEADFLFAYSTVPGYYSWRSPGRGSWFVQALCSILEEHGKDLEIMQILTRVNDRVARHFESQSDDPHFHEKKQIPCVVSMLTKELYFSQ
Nature of the assay: Inhibitory concentration against caspase-7.

Assay [4] concerns the target Caspase-1 (Mus musculus) (UniProt P29452).
In assay [5] the target is Caspase-8 (Homo sapiens, UniProt Q14790). Nature of the assay: Inhibitory concentration against caspase-8.
Chain of Caspase-8 (Q14790 217-374 limits assumed): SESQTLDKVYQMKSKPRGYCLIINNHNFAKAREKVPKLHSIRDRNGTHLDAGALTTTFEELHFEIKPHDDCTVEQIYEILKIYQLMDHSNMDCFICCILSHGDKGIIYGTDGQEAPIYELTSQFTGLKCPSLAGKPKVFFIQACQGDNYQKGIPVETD
Chain of Caspase-8 (Q14790 385-479 limits assumed): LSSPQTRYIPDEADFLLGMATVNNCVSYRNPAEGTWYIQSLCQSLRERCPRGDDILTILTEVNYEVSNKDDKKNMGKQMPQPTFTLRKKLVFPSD

pIC50: −log10 of the molar value.

Chain of Caspase-1 (Mus musculus) (P29452 whole entry, looked up): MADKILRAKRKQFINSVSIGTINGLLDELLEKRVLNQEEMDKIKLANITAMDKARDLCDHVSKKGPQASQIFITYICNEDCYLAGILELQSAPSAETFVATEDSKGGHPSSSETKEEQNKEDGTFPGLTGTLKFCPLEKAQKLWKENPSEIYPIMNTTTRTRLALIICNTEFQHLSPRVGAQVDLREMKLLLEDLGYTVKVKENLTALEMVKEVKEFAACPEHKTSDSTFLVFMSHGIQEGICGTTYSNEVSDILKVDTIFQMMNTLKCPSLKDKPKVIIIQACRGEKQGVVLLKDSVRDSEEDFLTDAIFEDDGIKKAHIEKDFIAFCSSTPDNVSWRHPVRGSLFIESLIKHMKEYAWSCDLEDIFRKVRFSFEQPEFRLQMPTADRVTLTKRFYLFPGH

`CC(C)C[C@H](NC(=O)COc1nccc2ccccc12)C(=O)N[C@H]1CC(=O)OC1O` (stereo partly drawn): the negative-log IC50 (pIC50) in assay [1] was less than 4.30; in assay [2], 5.80; in assay [3], 4.46; in assay [4], 4.35; in assay [5] it was less than 4.30.

On to `CC(C)C[C@H](NC(=O)COc1ccccc1)C(=O)N[C@H]1CC(=O)OC1O` (stereo partly drawn), for which the pIC50 in assay [1] is less than 4.30; in assay [2], 5.47; in assay [3] it was less than 5.00; in assay [4] it was less than 5.00; in assay [5] it was less than 5.00.

In the case of `CC(C)C[C@H](NC(=O)CCCc1ccc2ccccc2c1)C(=O)N[C@H]1CC(=O)OC1O` (stereo partly drawn), the pIC50 was 4.84 in assay [1]; 5.56 in assay [2]; 4.74 in assay [3]; 5.74 in assay [4]; less than 4.30 in assay [5].

Turning to `CC(C)C[C@H](NC(=O)c1cccc2ccccc12)C(=O)N[C@H]1CC(=O)OC1O` (stereo partly drawn), the pIC50 in assay [1], in assay [2], in assay [3] and in assay [5] was less than 5.00 throughout.

With `CC(C)C[C@H](NC(=O)CCOc1ccc2ccccc2c1)C(=O)N[C@H]1CC(=O)OC1O` (stereo partly drawn), the pIC50 in assay [1] was 5.23; in assay [2], 6.04; in assay [3], 5.02; in assay [4], 5.88; in assay [5], 4.82.

Consider `CC(C)C[C@H](NC(=O)COc1ccnc2ccccc12)C(=O)N[C@H]1CC(=O)OC1O` (stereo partly drawn), for which the pIC50 in assay [1] is less than 4.30; in assay [2], 6.63; in assay [3] it was 5.34; in assay [4], 4.45; in assay [5], less than 4.30.

In the case of `CC(C)[C@@H](NC(=O)OCc1ccccc1)C(=O)C[C@H]1CC(=O)OC1O` (stereo partly drawn), the negative-log IC50 (pIC50) in assay [1] is 5.00; in assay [2], 5.76; in assay [3] it was 5.17; in assay [4], 5.23; in assay [5], 4.92.

Regarding `CC(C)C[C@H](NC(=O)Cc1ccc2ccccc2c1)C(=O)N[C@H]1CC(=O)OC1O` (stereo partly drawn), the pIC50 in assay [1] is 4.95; in assay [2], 6.07; in assay [3], less than 5.00; in assay [4] it was 5.50; in assay [5], 4.90.

For `CC(C)C[C@H](NC(=O)COc1ccccc1OCc1ccccc1)C(=O)N[C@H]1CC(=O)OC1O` (stereo partly drawn), the pIC50 in assay [1] is 5.01; in assay [2], 6.65; in assay [3], 5.66; in assay [4] it was 5.62; in assay [5], 5.36.

`CC(C)C[C@H](NC(=O)c1ccc2ccccc2c1)C(=O)N[C@H]1CC(=O)OC1O` (stereo partly drawn): the pIC50 was less than 5.00 in assay [1]; 5.17 in assay [2]; less than 5.00 in assay [3]; 5.76 in assay [4]; less than 5.00 in assay [5].

Consider `CC(C)C[C@H](NC(=O)COc1cccc2cccnc12)C(=O)N[C@H]1CC(=O)OC1O` (stereo partly drawn), for which the negative-log IC50 (pIC50) in assay [1] is 4.90; in assay [2], 6.83; in assay [3] it was 5.82; in assay [4], 4.86; in assay [5] it was 5.65.

In the case of `CC(C)C[C@H](NC(=O)CCc1cccc2ccccc12)C(=O)N[C@H]1CC(=O)OC1O` (stereo partly drawn), the pIC50 in assay [1] was 5.38; in assay [2], 5.80; in assay [3], 5.06; in assay [4] it was 5.73; in assay [5] it was 4.91.

For `CC(C)C[C@H](NC(=O)/C=C/c1ccccc1)C(=O)N[C@H]1CC(=O)OC1O` (stereo partly drawn), the pIC50 was 5.30 in assay [1]; 5.86 in assay [2]; 5.01 in assay [3]; 6.19 in assay [4]; 4.87 in assay [5].

As to `CC(C)C[C@H](NC(=O)COc1cccc2cnccc12)C(=O)N[C@H]1CC(=O)OC1O` (stereo partly drawn), the pIC50 is 4.37 in assay [1]; 6.39 in assay [2]; 5.46 in assay [3]; 5.29 in assay [4]; 5.44 in assay [5].

With `CC(C)C[C@H](NC(=O)CCSc1ccc2ccccc2c1)C(=O)N[C@H]1CC(=O)OC1O` (stereo partly drawn), the negative-log IC50 (pIC50) in assay [1] is 5.79; in assay [2] it was 6.08; in assay [3] it was 5.23; in assay [4] it was 6.21; in assay [5], 4.82.

On to `CC(C)C[C@H](NC(=O)COc1ccccc1Cc1ccccc1)C(=O)N[C@H]1CC(=O)OC1O` (stereo partly drawn), for which the pIC50 is 5.00 in assay [1]; 6.31 in assay [2]; 5.47 in assay [3]; 6.28 in assay [4]; 5.22 in assay [5].

For `CC(C)C[C@H](NC(=O)CCOc1cccc2ccccc12)C(=O)N[C@H]1CC(=O)OC1O` (stereo partly drawn), the pIC50 was 6.52 in assay [1], 7.23 in assay [2], 5.86 in assay [3] and 5.01 in assay [5].

Consider `CC(C)C[C@H](NC(=O)C(C)Oc1cccc2ccccc12)C(=O)N[C@H]1CC(=O)OC1O` (stereo partly drawn), for which the pIC50 in assay [1] was 5.89; in assay [2], 6.42; in assay [3], 5.88; in assay [5] it was 5.61.

Turning to `CC(C)C[C@H](NC(=O)CCSc1cccc2ccccc12)C(=O)N[C@H]1CC(=O)OC1O` (stereo partly drawn), the pIC50 in assay [1] was 5.57; in assay [2], 6.39; in assay [3] it was 5.44; in assay [4], 6.25; in assay [5], 4.79.

Consider `CC(C)C[C@H](Nc1ccccc1)C(=O)N[C@H]1CC(=O)OC1O` (stereo partly drawn), for which the pIC50 was less than 4.30 in assay [1]; 5.47 in assay [2]; less than 5.00 in assay [3]; less than 5.00 in assay [4]; less than 5.00 in assay [5].

Take `CC(C)C[C@H](NC(=O)C(C)Oc1cccc2cc(Br)ccc12)C(=O)N[C@H]1CC(=O)OC1O` (stereo partly drawn): the negative logarithm of the IC50 (pIC50) in assay [1] was 4.86; in assay [2], 5.32; in assay [3], 4.49; in assay [5], 4.54.

In the case of `CC(C)C[C@H](NC(=O)CC(=O)c1ccc2ccccc2c1)C(=O)N[C@H]1CC(=O)OC1O` (stereo partly drawn), the negative logarithm of the IC50 (pIC50) in assay [1] was 4.99; in assay [2], 5.85; in assay [3], 5.13; in assay [4] it was 6.27; in assay [5], 5.28.

As for `CC(C)C[C@H](NC(=O)COc1cccc2c1CCCC2)C(=O)N[C@H]1CC(=O)OC1O` (stereo partly drawn), the pIC50 in assay [1] was 4.93; in assay [2], 6.49; in assay [3] it was 5.56; in assay [4], 5.74; in assay [5] it was 5.76.

On to `CC(C)C[C@H](NC(=O)COc1cccc2ccccc12)C(=O)N[C@H]1CC(=O)OC1O` (stereo partly drawn), for which the pIC50 in assay [1] is 6.03; in assay [2], 6.87; in assay [3] it was 5.74; in assay [5] it was 6.11.

Take `CC(C)C[C@H](NC(=O)Cc1cccc2ccccc12)C(=O)N[C@H]1CC(=O)OC1O` (stereo partly drawn): the pIC50 was 6.07 in assay [2], 5.14 in assay [3] and 5.49 in assay [4].

Consider `CC(C)C[C@H](NC(=O)CC(=O)c1cccc2ccccc12)C(=O)N[C@H]1CC(=O)OC1O` (stereo partly drawn), for which the negative logarithm of the IC50 (pIC50) in assay [1] is 4.93; in assay [2] it was 6.01; in assay [3], 4.95; in assay [4] it was 6.39; in assay [5] it was 4.95.

As for `CC(C)C[C@H](NC(=O)COc1ccccc1C1CCCC1)C(=O)N[C@H]1CC(=O)OC1O` (stereo partly drawn), the negative logarithm of the IC50 (pIC50) in assay [1] was 5.47; in assay [2], 6.71; in assay [3] it was 5.83; in assay [4], 6.27; in assay [5], 5.73.

For the molecule `CC(C)C[C@H](NC(=O)COc1ccc2c(c1)CCCC2)C(=O)N[C@H]1CC(=O)OC1O` (stereo partly drawn), the pIC50 in assay [1] was 4.54; in assay [2], 6.79; in assay [3], 5.64; in assay [4], 5.59; in assay [5] it was 5.31.

With `CC(C)C[C@H](NC(=O)COc1ccc(Cc2ccccc2)cc1)C(=O)N[C@H]1CC(=O)OC1O` (stereo partly drawn), the pIC50 was 4.72 in assay [1]; 6.46 in assay [2]; 5.36 in assay [3]; 5.74 in assay [4]; 5.33 in assay [5].

Consider `CC(C)C[C@H](NC(=O)COc1ccc(Cl)c2ccccc12)C(=O)N[C@H]1CC(=O)OC1O` (stereo partly drawn), for which the negative-log IC50 (pIC50) was 4.92 in assay [1]; 6.64 in assay [2]; 5.47 in assay [3]; 6.37 in assay [4]; 5.77 in assay [5].

For the molecule `CC(C)C[C@H](NC(=O)COc1ccccc1-c1ccccc1)C(=O)N[C@H]1CC(=O)OC1O` (stereo partly drawn), the negative-log IC50 (pIC50) in assay [1] is 6.14; in assay [2] it was 7.02; in assay [3], 5.69; in assay [4], 6.20; in assay [5] it was 5.77.

For `CC(C)C[C@H](NC(=O)COc1ccc(C2CCCC2)cc1)C(=O)N[C@H]1CC(=O)OC1O` (stereo partly drawn), the pIC50 in assay [1] was 4.29; in assay [2], 6.50; in assay [3], 5.28; in assay [4] it was 5.66; in assay [5], 5.23.

By pIC50 is commonly meant the negative decadic logarithm of the IC50, by convention in mol/L. High values mean a low IC50, low ones a high IC50.
